Test systems include A549; RPMI-8226; DU-145; COLO 205; HOP-92; SF-295; KM12; HOP-62; SR; Malme-3M; NCI-H226; A498; NCI-H460; K562; UACC-62; HCT-15; OVCAR-4; UACC-257; CAKI-1; EKVX.
Holding throughout (test): DTP human tumour cell line panel, 48 h

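These data come from cells grown in 96-well plates and exposed to compound for 48 hours at five concentrations. The concentration for 50% growth inhibition is given as GI50.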 The source made the active and inactive calls. Rule as the data show it: active = GI50 up to about 1.1 µM and inactive = higher. Some results are limits rather than exact numbers.

The values below come from ChEMBL document CHEMBL1201862, “PubChem BioAssay data set” (2004).

By GI50 is commonly meant the concentration at which growth is held to half of that of the control.

For the molecule `CCOC(=O)C(SCCO)C(C(=O)OCC)n1ccc(N)nc1=O` (stereo not given), the GI50 in the test on A549, with RPMI-8226, in the test on DU-145, in the test on COLO 205, with HOP-92 and with SF-295 was > 100 µM (inactive) throughout. In addition, the GI50 in the test on KM12, with HOP-62, with SR, with Malme-3M, in the test on NCI-H226 and in the test with A498 was > 100 µM (inactive) throughout. The GI50 with NCI-H460 was > 100 µM (inactive); in the test on K562 it was > 100 µM (inactive); with UACC-62 it was > 100 µM (inactive); in the test with HCT-15, over 100 µM; in the test on OVCAR-4 it was > 100 µM (inactive); in the test on UACC-257 it was > 100 µM (inactive). Moreover, the GI50 with CAKI-1 and in the test with EKVX was > 100 µM (inactive) throughout.

Take `O=C(O)C1CCCN1Cc1ccc2c(c1)OCO2` (stereo not given): the GI50 with A549, in the test on RPMI-8226, with DU-145, with COLO 205, in the test on HOP-92 and with SF-295 was > 100 µM (inactive) each time. For the same molecule, the GI50 was > 100 µM (inactive) in the test with KM12; > 100 µM (inactive) in the test with HOP-62; 14.5 µM (inactive) with SR; > 100 µM (inactive) with Malme-3M; > 100 µM (inactive) in the test with NCI-H226; > 100 µM (inactive) in the test on A498. In addition, the GI50 in the test with NCI-H460 is > 100 µM (inactive); in the test on K562 it was > 100 µM (inactive); in the test on UACC-62 it was > 100 µM (inactive); in the test on HCT-15, over 100 µM; in the test with OVCAR-4, > 100 µM (inactive); with UACC-257, > 100 µM (inactive). Further, the GI50 in the test with CAKI-1 and in the test on EKVX was > 100 µM (inactive) each time.

As for `CC1CC(C)CN(S(=O)(=O)c2cc(Cl)c(Oc3ccc([N+](=O)[O-])cc3Cl)c(Cl)c2)C1` (stereo not given), the GI50 in the test with A549, in the test with RPMI-8226, with DU-145, in the test with COLO 205, in the test with HOP-92 and in the test with SF-295 was > 100 µM (inactive) each time. Moreover, the GI50 in the test on KM12, with HOP-62, in the test on SR, in the test on Malme-3M, in the test on NCI-H226 and with A498 was > 100 µM (inactive) each time. Further, the GI50 was > 100 µM (inactive) in the test on NCI-H460; > 100 µM (inactive) in the test on K562; > 100 µM (inactive) in the test with UACC-62; over 100 µM in the test on HCT-15; > 100 µM (inactive) in the test with OVCAR-4; > 100 µM (inactive) in the test with UACC-257. For the same molecule, the GI50 in the test with CAKI-1 and in the test on EKVX was > 100 µM (inactive) each time.

For `COc1cc(/C=C2/SC(c3ccccc3)N(c3ccccc3)C2=O)cc(OC)c1OC` (stereo not given), the GI50 in the test on A549 was > 100 µM (inactive); with RPMI-8226 it was 9.66 µM (inactive); in the test with DU-145 it was > 100 µM (inactive); with COLO 205 it was 36.9 µM (inactive); in the test on HOP-92 it was > 100 µM (inactive); in the test on SF-295 it was 27 µM (inactive). The GI50 in the test with KM12 was 30.3 µM (inactive); in the test with HOP-62, 44.8 µM (inactive); in the test on SR, 14 µM (inactive); in the test with Malme-3M, 80.2 µM (inactive); in the test with NCI-H226 it was 80.4 µM (inactive); in the test with A498, > 100 µM (inactive). Besides, the GI50 in the test on NCI-H460 is 76 µM (inactive); with K562, 8.97 µM (inactive); in the test with UACC-62 it was 24.4 µM (inactive); with HCT-15 it was 61.7 µM; with OVCAR-4, 69.5 µM (inactive); in the test with UACC-257, 61.8 µM (inactive). Also, the GI50 in the test on CAKI-1 was > 100 µM (inactive); in the test with EKVX, 51.6 µM (inactive).

With `Nc1nc2c(ncn2Cc2ccc(CO)cc2)c(=O)[nH]1`, the GI50 with A549, with RPMI-8226, with DU-145, in the test with COLO 205, with HOP-92 and in the test on SF-295 was > 100 µM (inactive) each time. Also, the GI50 in the test on KM12 is > 100 µM (inactive); in the test on HOP-62, > 100 µM (inactive); with SR, 95.5 µM (inactive); with Malme-3M it was > 100 µM (inactive); with NCI-H226, > 100 µM (inactive); in the test with A498, > 100 µM (inactive). For the same molecule, the GI50 in the test with NCI-H460 is > 100 µM (inactive); in the test with K562, > 100 µM (inactive); in the test on UACC-62, > 100 µM (inactive); with HCT-15, over 100 µM; in the test with OVCAR-4, > 100 µM (inactive); in the test on UACC-257 it was > 100 µM (inactive). Besides, the GI50 with CAKI-1 and in the test on EKVX was > 100 µM (inactive) in each case.

As for `CCOC(=O)c1c(C)n(-c2ccc(C)cc2)c2c1cc(O)c1[nH]c3c(c12)CCCC3`, the GI50 is 18.8 µM (inactive) with A549; 4.07 µM (inactive) with RPMI-8226; 12.8 µM (inactive) in the test with DU-145; 25.6 µM (inactive) in the test with COLO 205; 2.92 µM (inactive) in the test with HOP-92; 20.6 µM (inactive) with SF-295. Further, the GI50 is 16.7 µM (inactive) with KM12; 27.9 µM (inactive) in the test with HOP-62; 0.0566 µM (active) with SR; 17.7 µM (inactive) with Malme-3M; 23.8 µM (inactive) with NCI-H226; 13.9 µM (inactive) in the test on A498. Besides, the GI50 in the test on NCI-H460 is 24.8 µM (inactive); in the test with K562 it was 17.7 µM (inactive); in the test with UACC-62, 17.3 µM (inactive); with HCT-15 it was 24.3 µM; in the test with OVCAR-4, 13.7 µM (inactive); with UACC-257 it was 21.2 µM (inactive). For the same molecule, the GI50 with CAKI-1 was 27.9 µM (inactive); in the test on EKVX, 26.1 µM (inactive).

For `CC(C)[C@@H]1ON1C(C)c1ccccc1` (stereo not given in full), the GI50 in the test with A549, in the test on RPMI-8226, in the test on DU-145, in the test with COLO 205, in the test on HOP-92 and in the test with SF-295 was > 100 µM (inactive) in each case. The GI50 in the test with KM12, in the test on HOP-62, in the test with SR, in the test with Malme-3M, in the test with NCI-H226 and with A498 was > 100 µM (inactive) in each case. Moreover, the GI50 was > 100 µM (inactive) with NCI-H460; > 100 µM (inactive) in the test with K562; > 100 µM (inactive) with UACC-62; 79.6 µM in the test with HCT-15; > 100 µM (inactive) in the test with OVCAR-4; > 100 µM (inactive) in the test on UACC-257. The figures for the GI50 with CAKI-1 and in the test with EKVX were 17.1 µM (inactive) and > 100 µM (inactive), respectively.
